Data set [1] deals with interaction between GST-MAGEA11 MHD and FAM-PCF11_4 peptide (MAGE-A11:PCF11) (Homo sapiens (Human), UniProt P43364). Kind of data set: TR-FRET dose response competition assay for disruption of MAGE-A11:PCF11 binding. The essentials: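 Competition TR-FRET at room temperature in 50 mM Tris pH 7.5, 20 mM MgCl2, 0.1 mg/ml BSA, 1 mM DTT: final 5 nM GST-MAGEA11 MHD, 5 nM Tb-anti-GST, 200 nM FAM-PCF11_4, 90 min. Ratio 520/490 nm converted to % inhibition; IC50 from sigmoidal fit.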

Data set [2] deals with MAGE-A11:PCF11 (Homo sapiens (Human), UniProt P43364). As to the kind of experiment: TR-FRET single point screening at 15 μM. Format: binding. Details: unit not given here. The note with it: single point TR-FRET screening at 15 μM against MAGE-A11:PCF11. Summed up:
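Single-point screen at 15 μM (0.25% DMSO) measuring disruption of GST-MAGEA11 (5 nM) binding to FAM-PCF11_4 peptide (200 nM) detected by Tb-anti-GST (5 nM). Buffer 50 mM Tris pH 7.5, 20 mM MgCl2, 0.1 mg/ml BSA, 1 mM DTT; 90 min at ~25 °C; 520/490 nm ratio converted to % inhibition versus controls.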
On the technique in general: Time-resolved FRET reads energy transfer from a long-lived donor to a nearby acceptor.

Data set [3] is described as follows: Solubility assay (μSOL Evolution, UV). Format: physicochemical. The settings on record: 18 h at RT in buffer; for solubility at 18 h: aqueous buffer, kinetic from dmso stock. The procedure:
Solubility assays were carried out on a Biomek FX lab automation workstation (Beckman Coulter, Inc., Fullerton, CA) using SOL Evolution software (pION Inc., Woburn, MA). The detailed method is described as follows. 10 μl of 10 mM compound stock (in DMSO) was added to 190 μl 1-propanol to make a reference stock plate. 5 μl from this reference stock plate were mixed with 70 μl 1-propanol and 75 μl citrate phosphate-buffered saline (PBS; isotonic) to make the reference plate, and the UV spectrum (250-500 nm) of the reference plate was read. 6 μl of 10 mM test compound stock was added to 594 μl buffer in a 96-well storage plate and mixed. The storage plate was sealed and incubated at RT for 18 h. The suspension was then filtered through a 96-well filter plate (pION Inc., Woburn, MA). 75 μl of filtrate was mixed with 75 μl 1-propanol to make the sample plate, and the UV spectrum of the sample plate was read. Calculations were carried out with μSOL Evolution software based on the area under the curve (AUC) of the UV spectrum of the sample and reference plates. All compounds were tested in triplicate.

A short description of data set [4]: High throughput Caco-2 permeability. The format is in vitro ADME. The settings on record: human, 10 μmol/l, 2 h, 37° C. The procedure:
(§1) High throughput Caco-2 permeability was performed in the TranswellR 0.4 μm polycarbonate membrane 96-well system with modified methods. Caco-2 cells were maintained at 37° C. in a humidified incubator with an atmosphere of 5% CO2. The cells were cultured in 75 cm^2 flasks with Dulbecco's Modified Eagle's Medium (DMEM) containing 10% (v/v) FBS, 1% (v/v) non-essential amino acids (NEAA), 100 units/ml of penicillin, and 100 μg/ml of streptomycin. The Caco-2 cells were seeded onto inserts at a density of 2×10^4 cells/insert separately. The medium in the wells was exchanged each other day, and the trans epithelial electrical resistance (TEER) value was measured using an epithelial voltohm meter (Millipore, Billerica, Massachusetts). […] For transport experiments, each cultured monolayer on the 96-well plate was washed twice with a transport buffer (HBSS containing 25 mM HEPES, pH 7.4). The permeability assay was initiated by the addition of each compound solution (10 μmol/l) into inserts (apical side, A) or receivers (basolateral side, B). The Caco-2 cell monolayers were incubated for 2 h at 37° C. Fractions were collected from receivers (if apical to basal permeability) or inserts (if basal to apical permeability), and concentrations were assessed by UPLC/MS (Waters; Milford, MA). All compounds were tested in triplicates. The A→B (or B→A) apparent permeability coefficients (Papp) of each compound were calculated using the equation, Papp=dQ/dt×1/AC0, where dQ/dt equals the flux of a drug across the monolayer, A equals the total insert well surface area, and C0 is the initial concentration of substrate in the donor compartment. The efflux ratio was determined by dividing the Papp in the B-A direction by the Papp in the A-B direction.
For orientation: Passage across Caco-2 layers is used to estimate intestinal permeability.

Data set [5] deals with Caco-2 cell monolayers. Kind of data set: High throughput Caco-2 permeability. The format is in vitro ADME. The procedure: as §1
Setting [6] is: Table 8, representative compounds, read-out: TR-FRET IC50.
Setting [7] is: Table 6, 4-aminoquinoline compounds, read-out: TR-FRET, IC50.
Where [8] appears, read: Caco-2, pH 7.4, apical to basolateral, read-out: Caco-2 permeability, A/B.
The mark [9] stands for this setting: Caco-2, pH 7.4, basolateral to apical, read-out: Caco-2 permeability, B/A.
[10] abbreviates: read-out: IC50 by TR-FRET for disrupting MAGE-A11:PCF11 interaction.
[11] abbreviates: Dose response TR-FRET screening of nine scaffold groups against MAGE-A11:PCF11, read-out: consensus IC50.

≈ marks a conversion by molar mass, not a printed value. Like-named read-outs stand apart in the source and are kept apart here.

Chain of interaction between GST-MAGEA11 MHD and FAM-PCF11_4 peptide (MAGE-A11:PCF11) (P43364 218-429): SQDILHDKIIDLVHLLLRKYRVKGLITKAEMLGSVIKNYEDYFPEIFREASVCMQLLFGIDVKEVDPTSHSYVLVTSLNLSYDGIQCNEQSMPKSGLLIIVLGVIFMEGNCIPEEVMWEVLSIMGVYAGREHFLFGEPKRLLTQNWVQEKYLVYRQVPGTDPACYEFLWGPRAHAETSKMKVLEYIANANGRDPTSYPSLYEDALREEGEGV
Chain of MAGE-A11:PCF11 (P43364 218-429): as above

The IC50 is the point on the concentration scale where inhibition reaches its midpoint. Take `CCCN(CCCCNc1ccnc2cc(Cl)ccc12)Cc1cc(Br)ccc1O` [SJ000311196]: the IC50 in data set [1] (setting [6]) was determined as 69.9 µM. Moreover, the TR-FRET signal in data set [2] is 5.724.

For orientation: Solubility means how much of the substance goes into solution per volume. Consider `FC(F)(F)c1cc(-c2ccc3c(NCCCNCc4ccco4)ccnc3c2)cc(C(F)(F)F)c1` [SJ000311270-01], for which the IC50 in data set [1] (setting [7]) amounted to 0.58 µM. Also, the “Solubility” value in data set [3] was 61.08 µM (≈ 30.1 µg/mL). Further, the Papp at 2 h, 10 μmol/l stood at 3.26 nm/s in data set [4] (setting [8]) and 0.79 nm/s in data set [4] (setting [9]).

Regarding `CC(C)(C)c1ccc(-c2ccc3c(NCCCNCc4ccco4)ccnc3c2)cc1` [SJ000311286-01], in data set [1] (setting [10]), the IC50 was found to be 1.16 µM. In data set [3], the “Solubility” value was 56.16 µM (≈ 23.2 µg/mL). The Papp at 2 h, 10 μmol/l was 5.78 nm/s in data set [4] (setting [8]) and 1.2 nm/s in data set [4] (setting [9]).

For orientation: solubility means how much of the substance goes into solution per volume. In the case of `FC(F)(F)c1ccc2c(NCCCNCc3ccc4c(c3)OCO4)ccnc2c1` [SJ000361106-02, N^1-(Benzo[d][1,3]dioxol-5-ylmethyl)-N^3-(7-(trifluoromethyl)quinolin-4-yl)propane-1,3-diamine], the IC50 was above 74 µM in data set [1] (setting [7]) and 69.9 µM in data set [1] (setting [6]). The solubility at 18 h in data set [3] worked out at 129 µM (≈ 51.9 µg/mL). In addition, the figures for the Papp at 2 h, 10 μmol/l in data set [4] (setting [8]) and in data set [4] (setting [9]) were 470 nm/s and 400 nm/s, respectively.

For the compound `FC(F)(F)c1ccc2c(NCCCNCc3ccco3)ccnc2c1` [SJ000361113-02, N^1-(Furan-2-ylmethyl)-N^3-(7-(trifluoromethyl)quinolin-4-yl)propane-1,3-diamine], in data set [1] (setting [7]), the IC50 is above 70 µM. In addition, the concentration in solution in data set [3] (solubility at 18 h) was 119 µM (≈ 41.6 µg/mL). Also, the results for the Papp at 2 h, 10 μmol/l in data set [4] (setting [8]) and in data set [4] (setting [9]) were 502 nm/s and 401 nm/s, respectively.

For `Clc1ccc2c(NCCCNCc3ccc4[nH]ccc4c3)ccnc2c1` [SJ000520909-03, N^1-((1H-Indol-5-yl)methyl)-N^3-(7-chloroquinolin-4-yl)propane-1,3-diamine], the half-inhibitory concentration (IC50) in data set [1] (setting [7]) stood at 0.24 µM; in data set [1] (setting [6]), 67.1 µM. In addition, in data set [3], the concentration in solution (solubility at 18 h) was 59.8 µM (≈ 21.8 µg/mL). Further, the Papp at 2 h, 10 μmol/l came out at 196 nm/s in data set [4] (setting [8]) and 213 nm/s in data set [4] (setting [9]).

`COc1ccc2cc(C3Nc4ccccc4C(=O)N3CCCN3CCOCC3)ccc2c1` (stereo not drawn) [SJ000803763-1]: the IC50 in data set [1] (setting [11]) came out at 67.4 µM.

For the compound `O=C1c2ccccc2NC(c2ccc(F)c(Br)c2)N1CCCN1CCOCC1` (stereo not drawn) [SJ000803764-1], the IC50 in data set [1] (setting [11]) amounted to 68 µM.

As for `CN(C)c1ccc(C2Nc3ccccc3C(=O)N2CCCN2CCOCC2)cc1` (stereo not drawn) [SJ000803767-1], in data set [1] (setting [11]), the IC50 was 71.1 µM.

Regarding `Cc1ccc(C2Nc3ccccc3C(=O)N2CCCN2CCOCC2)cc1` (stereo not drawn) [SJ000803768-1], in data set [1] (setting [11]), the IC50 came to 65.9 µM.

Consider `CCCn1c(=O)c2nc(-c3ccccc3)[nH]c2n(CCC)c1=O` [SJ000832251-1], for which the IC50 in data set [1] (setting [11]) came to 73 µM.

With `C=CCn1c(=O)c2c(nc(-c3ccccc3)n2C)n(C)c1=O` [SJ000832270-1], in data set [1] (setting [11]), the IC50 was 85.8 µM.

Take `Fc1ccc2c(NCCCNCc3ccc(OC(F)(F)F)cc3)ccnc2c1` [SJ000834150]: the IC50 in data set [1] (setting [6]) is above 67.3 µM.

For the compound `CCc1ccc(OCc2ccccc2C(=O)Nc2ccc3nc(C)cc(N)c3c2)cc1` [SJ000855285], in data set [1] (setting [6]), the IC50 is 9.29 µM.

As for `Brc1ccc2c(NCCCNCc3ccc4[nH]ccc4c3)ccnc2c1` [SJ001008065-01, N^1-((1H-Indol-5-yl)methyl)-N^3-(7-bromoquinolin-4-yl)propane-1,3-diamine], in data set [1] (setting [7]), the IC50 worked out at 0.62 µM. The same compound gave a solubility at 18 h in data set [3] of 57.1 µM (≈ 23.4 µg/mL). The Papp at 2 h, 10 μmol/l in data set [4] (setting [8]) was found to be 183 nm/s; in data set [4] (setting [9]), 193 nm/s.

`c1ccc2c(NCCCNCc3ccc4[nH]ccc4c3)ccnc2c1` [SJ001008066-01, N^1-((1H-Indol-5-yl)methyl)-N^3-(quinolin-4-yl)propane-1,3-diamine]: in data set [1] (setting [10]), the IC50 came out at 0.13 µM. Moreover, in data set [3], the “Solubility” value came out at 37.77 µM (≈ 12.5 µg/mL). Moreover, the Papp at 2 h, 10 μmol/l was 81.7 nm/s in data set [4] (setting [8]) and 80.9 nm/s in data set [4] (setting [9]). Also, the “cell permeability” value in data set [5] is given as “cell permeable”.

`Cn1ccc2cc(CNCCCNc3ccnc4cc(C(F)(F)F)ccc34)ccc21` [SJ001008067-01, N^1-((1-Methyl-1H-indol-5-yl)methyl)-N^3-(7-(trifluoromethyl)quinolin-4-yl)propane-1,3-diamine]: in data set [1] (setting [7]), the IC50 stood at 1.16 µM. In data set [3], the solubility at 18 h was determined as 19.4 µM (≈ 8 µg/mL). The Papp at 2 h, 10 μmol/l in data set [4] (setting [8]) is 214 nm/s; in data set [4] (setting [9]) it was 123 nm/s.

As to `CC(C)(C)c1ccc(-c2ccc3c(NCCCNCc4ccc5[nH]ccc5c4)ccnc3c2)cc1` [SJ001008068-01, N^1-((1H-Indol-5-yl)methyl)-N^3-(7-(4-(tert-butyl)phenyl)quinolin-4-yl)propane-1,3-diamine], in data set [1] (setting [7]), the IC50 is 0.13 µM. Further, in data set [3], the solubility at 18 h worked out at 0.67 µM (≈ 0.31 µg/mL). Also, the Papp at 2 h, 10 μmol/l in data set [4] (setting [8]) came out at 3.68 nm/s; in data set [4] (setting [9]), 15.4 nm/s.

Take `FC(F)(F)c1cc(-c2ccc3c(NCCCNCc4ccc5[nH]ccc5c4)ccnc3c2)cc(C(F)(F)F)c1` [SJ001008069-01, N^1_((1H-Indol-5-yl)methyl)-N^3-(7-(3,5-bis(trifluoromethyl)phenyl)quinolin-4-yl)propane-1,3-diamine]: the IC50 in data set [1] (setting [7]) was 0.2 µM. Further, in data set [3], the solubility at 18 h is 0.12 µM (≈ 0.0651 µg/mL). Moreover, the figures for the Papp at 2 h, 10 μmol/l in data set [4] (setting [8]) and in data set [4] (setting [9]) were 4.98 nm/s and 2.29 nm/s, respectively.

With `C=CC(=O)N(CCCNc1ccnc2ccccc12)Cc1ccc2[nH]ccc2c1` [SJ001009807-01, N-((1H-Indol-5-yl)methyl)-N-(3-(quinolin-4-ylamino)propyl)acrylamide], the IC50 in data set [1] (setting [7]) is 3.5 µM. The compound also showed a solubility at 18 h in data set [3] of 34.8 µM (≈ 13.4 µg/mL). The Papp at 2 h, 10 μmol/l in data set [4] (setting [8]) worked out at 27.3 nm/s; in data set [4] (setting [9]), 189 nm/s.

These data come from patent US20240246941A1, “SUBSTITUTED 4-(3-AMINOPROP-1-YL)AMINOQUINOLINE ANALOGS AS MODULATORS OF MELANOMA-ASSOCIATED ANTIGEN 11 UBIQUITIN LIGASE” (ST. JUDE CHILDREN'S RESEARCH HOSPITAL, INC., priority 2020, published 2024).
